Laboratory results taken from US20240033373A1, “TARGETED, INTRACELLULAR DELIVERY OF THERAPEUTIC PEPTIDES USING SUPRAMOLECULAR NANOMATERIALS” (The University of Chicago, priority 2020, published 2024).
Like-named read-outs stand apart in the source and are kept apart here.

Legend:
[1] = test system: DLBCL cell lines; assay: Cell death assay (CellTiter-Glo 2.0), several lines stated together; assay type: cell-based, human
Description: Plotted points are means of duplicates+/−S.E.M., normalized to an untreated control that received the same pre-treatment, and fitted using nonlinear regression.
(§1) Cell Death Assays Treatments were prepared in 96-well plates in 50 μL at 2× concentration. Cells were suspended at 0.2 million cells per mL, and 50 μL (10,000 cells) were added to each well and pipette-mixed. The plates were incubated for 24-72 hours, depending on the experiment, then 100 μL of CellTiter-Glo 2.0 (Promega) was added and pipette-mixed, followed by luminescence reading (SpectraMax iD5, Molecular Devices).

[2] = test system: OCI-Ly3; assay: Cell death assay (CellTiter-Glo 2.0); assay type: cell-based, human; details: 24 h ATSP-7041 pre-treatment, then BH3 mimetic
Description: as §1
(§2) First, SU-DHL-5 was treated with equivalent doses of SAH-MS1-18 either as a free drug, inside of αCD19- or αOspA-PSOMs, or on the outside of empty αCD19- or αOspA-PSOMs (FIG. 14A). […] Other DLBCL cell lines, including OCILy1, OCI-Ly3, and OCI-Ly8, were treated (FIG. 14B).

[3] = test system: SU-DHL-5; assay: Cell death assay (CellTiter-Glo 2.0); assay type: cell-based, human; details: 24 h ATSP-7041 pre-treatment, then BH3 mimetic
Description: as §1, §2

[4] = pipettable melt of PEG-SS—PPS and PEG(500)DME
[5] = 24 h ATSP-7041 pre-treatment vs vehicle, washed, then BH3 mimetic, WTp53 lines

SMILES | change in cell death sensitivity after p53-reactivation [1, 5] | change in cell death sensitivity after p53-reactivation [2] | change in cell death sensitivity after p53-reactivation [3] | change in cell death sensitivity after p53-reactivation [1] | solubility in polymer melt [4]
Cc1c(-c2ccc(N3CCc4cccc(C(=O)Nc5nc6ccccc6s5)c4C3)nc2C(=O)O)cnn1CC12CC3CC(CC(C3)C1)C2 [A-1331852] | no notable change in sensitivity |  |  |  | 
CC1(C)CCC(CN2CCN(c3ccc(C(=O)NS(=O)(=O)c4ccc(NCC5CCOCC5)c([N+](=O)[O-])c4)c(Oc4cnc5[nH]ccc5c4)c3)CC2)=C(c2ccc(Cl)cc2)C1 [ABT-199] | no notable change in sensitivity |  |  |  | 
Cc1c(-c2c(-c3ccc(F)o3)sc3ncnc(O[C@H](Cc4ccccc4OCc4ccnn4CC(F)(F)F)C(=O)O)c23)ccc(OCCN2CCN(C)CC2)c1Cl [S63845] |  | made much more sensitive | made much more sensitive | much more sensitive | highly soluble
